These results are taken from patent publication US10434143B2, “Method of treating anemia caused by ribavirin treatment of hepatitis C using erythropoietin alpha” (priority 2001, dated 2019).

Several values for one entry are separate records, joined by “and”; a condition that tells them apart may be missing. Identical values can stand only once.

Data set [1] deals with hepatitis C virus. The conditions noted are these: with interferon, licensing trials, cited from earlier work.
Data set [2] has as its system hepatitis C virus. The data set can be described thus: Study of interferon alone and interferon plus ribavirin for hepatitis C in HIV-infected patients. In kind it is in vivo, human. The conditions noted are these: interferon alone group, 3 months, 10 patients. As for the experimental part: A study of interferon alone and interferon plus ribavirin for hepatitis C in HIV-infected patients was performed. Ten patients received interferon alone and 11 received the combination treatment of interferon alpha and ribavirin. Median liver biopsy fibrosis score for both groups was 2.1. In the interferon alone group, at 3 months, there was no change in HCV RNA, CD4 dropped from a median of 190 to 186 cells/ml and HIV RNA dropped from a median of 1500 copies per ml to less than 400. At the same time point, 3 months, in the combination group, the HCV RNA dropped from 3.2 million to less than about 600 copies/ml. […] The main adverse event was anemia which occurred in 5/21(23.8%). This was treated with erythropoietin 40,000 units weekly when the hemoglobin declined to 10 g/dl. […] This was the first report of this treatment in patients with HIV infection as well as hepatitis C.

The format of data set [3] is in vivo, human. The procedure:
In an open-label, prospective pilot study, 56 subjects with chronic HCV infection were treated with both RBV and IFN-α. Eighteen subjects with anemia (hemoglobin 10 g/dl or […]) and reduced exercise tolerance following IFN-α/RBV initiation were treated with Epoetin alpha (up to 40,000 units per week subcutaneously). […] At the time of epoetin alpha initiation, the mean hemoglobin level declined 25.4% (to 10.6 g/dL) in the group receiving this treatment. […] Two thirds of subjects receiving epoetin alpha reported improved symptoms. […] Fifty-six chronically HCV-infected (≥90 days) subjects who were treated with IFN-α (3 million units TIW) and RBV (1000 mg/d for subjects <75 kg or 1200 mg/d for subjects ≥75 kg) were entered into an open-label, pilot, prospective study at several centers. […] RBV doses were adjusted by treating physicians as clinically indicated throughout the study. Following INF-α/RBV initiation, subjects with new-onset anemia (hemoglobin ≤10 g/dL or ≥2 g/dL decrease in hemoglobin) or a decrease in hemoglobin accompanied by decreased exercise tolerance (providers' impressions) received epoetin alpha (up to 40,000 units per week, subcutaneously). […] After initiation of epoetin alpha therapy, subjects were evaluated at a 2-week interval for 8 weeks and every 4 weeks thereafter for a maximum of 40 weeks. At each visit, laboratory safety parameters were obtained and, for most subjects, health-care providers recorded whether improvement had occurred in symptoms that typically occur as a side-effect of anemia or after therapy with IFN-α/RBV (e.g., flu-like symptoms, fatigue, dyspnea). […] In addition, clinical benefit of epoetin alpha therapy was evaluated by comparing the percent decline in hemoglobin levels from baseline to initiation of epoetin alpha with the percent recovery in these levels by the last visit. Fisher's exact test or the t-test was used to evaluate the significance of differences between groups with respect to demographic characteristics.

Data set [4] can be described thus: Erythropoietin 40,000 units weekly for ribavirin-induced anemia. The data set is classed as in vivo, human. The procedure:
A study of interferon alone and interferon plus ribavirin for hepatitis C in HIV-infected patients was performed. Ten patients received interferon alone and 11 received the combination treatment of interferon alpha and ribavirin. Median liver biopsy fibrosis score for both groups was 2.1. In the interferon alone group, at 3 months, there was no change in HCV RNA, CD4 dropped from a median of 190 to 186 cells/ml and HIV RNA dropped from a median of 1500 copies per ml to less than 400. At the same time point, 3 months, in the combination group, the HCV RNA dropped from 3.2 million to less than about 600 copies/ml. […] This was treated with erythropoietin 40,000 units weekly when the hemoglobin declined to 10 g/dl. […] This was the first report of this treatment in patients with HIV infection as well as hepatitis C. […] This was done in both HIV seronegative individuals and HIV seropositive individuals.

The format of data set [5] is in vivo, human. As for the experimental part: Once-weekly recombinant human erythropoietin (epoetin alpha) facilitates optimal ribavirin (RBV) dosing in Hepatitis C virus (HCV)-infected patients receiving Interferon-α-2b (IFN)/RBV combination therapy. RBV dose reduction or discontinuation has been the standard approach to treating hemoglobin (Hb) decreases resulting from IFN/RBV therapy in HCV-infected patients. […] An open-label, randomized, multicenter study was conducted to assess the efficacy and tolerability of once-weekly (QW) epoetin alpha therapy for hemoglobin decreases associated with IFN/RBV therapy and to evaluate the impact of epoetin alpha therapy on RBV dosing. HCV-infected patients who developed hemoglobin levels ≤12 g/dL during the first 24 weeks of combination IFN/RBV therapy (n=60) were randomly assigned to treatment with epoetin alpha (40000 units) subcutaneously once weekly for up to 36 weeks or standard of care (SOC). The primary and secondary efficacy end points were changes from baseline (at Week 16) in hemoglobin level and RBV dose, respectively.
The source holds these as a separate data set.

Consider `NC(=O)c1ncn([C@@H]2O[C@H](CO)[C@@H](O)[C@H]2O)n1` [ribavirin], for which the “sustained virologic response rate” value in the data set on hepatitis C virus [1] (at least 10.6 mg/kg ribavirin) is on record as “over 40%”. In the data set with hepatitis C virus [1] (less than 10.6 mg/kg ribavirin), the “SVR (response) rate” value is 28%.

In the case of IFN-α, the “change in HCV RNA” value in the data set on hepatitis C virus [2] was “no change”.

For “epoetin alpha: recombinant human erythropoietin (r-HuEPO, Epoetin alpha)”, in data set [3] (epoetin alpha up to 40,000 units per week s.c., N=18, mean follow-up 25.3 weeks), the “mean hemoglobin level at the last study visit” value is 12.7 g/dL and 12.7 ± 1.7 g/dL. Also, in data set [3] (human, in vivo), the “Dyspnea (%)” value is 80.0%; the “Dyspnea, median duration (wks)” value is given as 6.6 wks; the “Fatigue (%)” value is 73.3%; the “Fatigue, median duration (wks)” value came to 8.2 wks. Further, in data set [3] (human, in vivo), the Flu-like symptoms is reported as 46.7 and the “Flu-like symptoms, median duration (wks)” value is 2.7 wks. Moreover, the “recovery in mean hemoglobin level after initiation of epoetin alpha” value in data set [3] (percent recovery by the last visit) was 65.5% and 65.5±56.3%. Besides, the “hemoglobin after erythropoietin treatment” value in data set [4] (begun when hemoglobin declined to 10 g/dl, after a median of 4 weeks, HCV/HIV patients) turned out to be 12.7 g/dL. Further, in data set [4] (hemoglobin 11 gr/dl or less, HIV seronegative and seropositive), the quality of life result is reported as “substantial increase in their quality of life”. Besides, the “mean hemoglobin level at last available assessment” value in data set [5] (P<0.05 vs SOC) was determined as 13.8 g/dL. Besides, in data set [5] (baseline 998 mg/day, P<0.05 vs SOC), the “mean change in RBV dose at last available assessment” value is -25 mg/day. Further, the “mean change from baseline hemoglobin level at last available assessment” value in data set [5] (epoetin alpha 40000 units s.c. once weekly, baseline 11.0 g/dL, P<0.05 vs SOC) was “+2.7 g/dL”. In addition, the tolerability entry in data set [5] (human, in vivo) is “well tolerated”. In data set [5] (last available assessment, P<0.01 vs SOC), the “patients treated with RBV doses greater than 10.6 mg/kg per day” value stood at 77%.
